Experimental data: ChEMBL document CHEMBL1147427, “2-hydroxy-4-isopropylbenzaldehyde, a potent partial tyrosinase inhibitor” (Bioorg Med Chem Lett, 2004)

Test system: Tyrosinase (Agaricus bisporus)
Assay: Inhibitory activity at a concentration of 0.5 nm, was evaluated against the oxidation of L-3,4-dihydroxyphenylalanine (L-DOPA) catalyzed by mushroom tyrosinase; No inhibitory activity

- IC50: No inhibition
Structure (SMILES): COc1cc(C(C)C)ccc1C=O
